Test results from patent US8026218B2, “Bifunctional analgesic compounds for opioid receptor agonists and neurokinin-1 receptor antagonists” (The University of Arizona, priority 2006, dated 2011).
Like-named read-outs stand apart in the source and are kept apart here. Square brackets hold non-standard residues; d marks the D form. Peptide text beside a SMILES is read from it. * marks the point of attachment. NH(3,5-(CF3)2-benzyl) = FC(F)(F)c1cc(CN*)cc(C(F)(F)F)c1; X1 = OC[C@H]1OC(*)[C@H](O)[C@@H](O)[C@@H]1O; Dmt = Cc1cc(O)cc(C)c1C[C@H](N)C(=O)O; Nle = CCCC[C@H](N)C(=O)O

Columns and labels:
[1] = biological target: T1, human NK1 receptor (hNK1) (Homo sapiens, UniProt P25103); test: Radioligand competition binding, [3H]-Substance P, hNK1
T1 construct: expressed in transfected cells

rat NK1 (rNK1) receptor = biological target: T2, rat NK1 (rNK1) receptor (Rattus norvegicus, UniProt P14600); test: Radioligand competition binding, [3H]substance P, rNK1/CHO membranes; details: for IC50: LogIC50, rNK1, [3H]Substance P, logarithm of IC50 (negative), CHO cell membranes
T2 construct: expressed in transfected cells; host or cells: CHO (rNK-1/CHO cell line from Dr. James Krause)

[2] = biological target: T3, human δ opioid receptors (hDOR) (Homo sapiens, UniProt P41143); test: [35S]GTP-γ-S binding assay, hDOR; format: biochemical
T3 construct: expressed in transfected cells; host or cells: HN9.10 neuroblastoma cell line, pCDNA3, neomycin-selected clones

[3] = In vitro stability in rat plasma at 37° C.; format: in vitro ADME; details: for half-life at 50 μg/mL: rat, rat plasma
Protocol: The derivative compounds were tested for their metabolite stability. The compounds were incubated in rat plasma at 37° C., and aliquots were withdrawn at various time points and analyzed by HPLC to determine the concentration of remaining compound derivatives (FIGS. 15-16, 36, and 47-48).
In Vitro Stability of compound derivatives in Rat Plasm (Yamamoto, 2007, J. Am. Chem. Soc. submitted). Stock solution of compounds (50 mg/mL in DMSO) were diluted 1000-fold into rat plasma (Lot 24927, Pel-Freez Biologicals, Rogers, Ak.) to result in an incubation concentration of 50 μg/mL. All samples were incubated at 37° C. for 6 h, and 200 μL of aliquots were withdrawn at 1 h, 2 h, 4 h and 6 h. […] The samples were run in triplicate. Discussion.

[4] = biological target: T4, rat μ opioid receptors (rMOR) (Rattus norvegicus, UniProt P33535); test: biochemical; format: biochemical
T4 construct: expressed in transfected cells; host or cells: HN9.10 neuroblastoma cell line, pCDNA3, neomycin-selected clones

[5] = biological target: T4, rat μ opioid receptors (rMOR); test: Radioligand competition binding, [3H]DAMGO, rMOR membranes
μ opioid receptors (GPI) = test: Guinea pig isolated ileum (GPI) assay, opioid agonist;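 on all read-outs here: inhibition of electrically evoked contractions (0.1 Hz, 0.4 msec, supramaximal voltage) in organ baths at 37 °C, contraction height 3 min after each cumulative dose versus the 1 min before dosing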; details: for Opioid agonist GPI (μ), % inh.: Table 22, no antagonist activity observed at the tested concentration; for Opioid agonist GPI (μ), % inh. / GPI/LMMP opioid(mu) agonist, % at 1 uM: at 1 uM; for agonist effect in the functional assay using GPI: at the concentration of 1 μM, words
[6] = biological target: T5, Substance P receptors (guinea pig NK1) (Cavia porcellus, UniProt P30547); test: Guinea pig isolated ileum (GPI) assay with substance P stimulation in presence of 1 μM naloxone; details: for GPI/LMMP SP Agonist (IC50; nM): Table 39
T5 construct: from tissue; host or cells: guinea pig (Hartley) ileum LMMP, 1 μM naloxone present

δ opioid receptors (MVD) = biological target: T6, δ opioid receptors (MVD) (Mus musculus, UniProt P32300); test: Mouse isolated vas deferens (MVD) assay, opioid agonist
T6 construct: from tissue; host or cells: mouse (ICR) isolated vas deferens

[7] = biological target: T3, human δ opioid receptors (hDOR); test: Radioligand competition binding, [3H]DPDPE, hDOR membranes
[8] = Table 39, read-out: Affinity rNK1 (Ki; nM)
[9] = Table 21, net total bound/basal binding × 100, read-out: Emax (%), hDOR
[10] = Table 39, read-out: GTP binding hDOR EC50
[11] = Table 39, read-out: GTP binding hDOR Emax
[12] = read-out: half life (T1/2) in rat plasma (converted)
[13] = electrically stimulated isolated tissue, read-out: MVD (δ), IC50
[14] = Table 21, HN9.10 cell, read-out: EC50 (nM), hDOR
[15] = Table 21, net total bound/basal binding × 100, read-out: Emax (%), rMOR
[16] = Table 39, read-out: GTP binding rMOR EC50
[17] = Table 39, read-out: GTP binding rMOR Emax
[18] = net total bound/basal binding × 100, read-out: Emax, rMOR, [35S]GTP-γ-S binding

T5 sequence (P30547 whole entry): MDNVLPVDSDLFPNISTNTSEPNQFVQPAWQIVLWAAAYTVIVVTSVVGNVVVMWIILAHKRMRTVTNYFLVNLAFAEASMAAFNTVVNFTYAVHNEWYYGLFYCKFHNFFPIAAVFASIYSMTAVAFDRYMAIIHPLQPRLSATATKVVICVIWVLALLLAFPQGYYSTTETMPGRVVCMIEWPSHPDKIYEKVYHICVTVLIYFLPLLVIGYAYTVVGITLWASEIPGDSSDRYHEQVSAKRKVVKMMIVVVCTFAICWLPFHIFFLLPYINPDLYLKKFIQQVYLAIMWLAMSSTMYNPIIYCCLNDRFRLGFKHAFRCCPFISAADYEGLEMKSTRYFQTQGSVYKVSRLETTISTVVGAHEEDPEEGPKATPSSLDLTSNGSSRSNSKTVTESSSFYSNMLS
T3 sequence (P41143 whole entry): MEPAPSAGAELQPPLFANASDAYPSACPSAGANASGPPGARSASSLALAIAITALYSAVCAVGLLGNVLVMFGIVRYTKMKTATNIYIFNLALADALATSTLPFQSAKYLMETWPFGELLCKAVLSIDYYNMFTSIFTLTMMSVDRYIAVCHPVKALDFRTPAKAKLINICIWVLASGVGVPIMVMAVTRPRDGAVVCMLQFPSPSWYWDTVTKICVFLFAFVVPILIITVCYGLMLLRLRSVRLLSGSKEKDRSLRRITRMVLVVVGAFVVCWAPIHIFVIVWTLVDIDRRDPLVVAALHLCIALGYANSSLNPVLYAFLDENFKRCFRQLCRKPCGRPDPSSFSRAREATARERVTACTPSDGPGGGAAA
T1 sequence (P25103 whole entry): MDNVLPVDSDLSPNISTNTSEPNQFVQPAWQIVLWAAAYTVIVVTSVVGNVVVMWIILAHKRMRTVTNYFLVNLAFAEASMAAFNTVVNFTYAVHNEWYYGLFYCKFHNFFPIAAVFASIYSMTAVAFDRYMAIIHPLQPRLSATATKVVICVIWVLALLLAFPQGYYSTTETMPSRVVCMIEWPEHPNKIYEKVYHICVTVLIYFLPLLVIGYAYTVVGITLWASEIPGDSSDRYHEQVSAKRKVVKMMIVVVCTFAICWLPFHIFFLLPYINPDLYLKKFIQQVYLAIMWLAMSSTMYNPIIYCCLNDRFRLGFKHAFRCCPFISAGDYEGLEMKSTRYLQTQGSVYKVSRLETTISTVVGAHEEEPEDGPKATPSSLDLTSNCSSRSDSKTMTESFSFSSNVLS
T4 sequence (P33535 whole entry): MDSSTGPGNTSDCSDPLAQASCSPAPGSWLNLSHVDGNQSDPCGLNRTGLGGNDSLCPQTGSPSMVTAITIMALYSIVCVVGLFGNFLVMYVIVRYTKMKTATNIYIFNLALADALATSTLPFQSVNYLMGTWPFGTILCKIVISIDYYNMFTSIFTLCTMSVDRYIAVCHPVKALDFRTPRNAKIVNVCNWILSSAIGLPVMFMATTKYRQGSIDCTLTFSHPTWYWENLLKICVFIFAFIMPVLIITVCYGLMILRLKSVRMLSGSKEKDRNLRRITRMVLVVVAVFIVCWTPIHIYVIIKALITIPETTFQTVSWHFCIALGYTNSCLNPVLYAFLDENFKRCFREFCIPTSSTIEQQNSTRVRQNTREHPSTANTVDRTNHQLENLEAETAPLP
T2 sequence (P14600 whole entry): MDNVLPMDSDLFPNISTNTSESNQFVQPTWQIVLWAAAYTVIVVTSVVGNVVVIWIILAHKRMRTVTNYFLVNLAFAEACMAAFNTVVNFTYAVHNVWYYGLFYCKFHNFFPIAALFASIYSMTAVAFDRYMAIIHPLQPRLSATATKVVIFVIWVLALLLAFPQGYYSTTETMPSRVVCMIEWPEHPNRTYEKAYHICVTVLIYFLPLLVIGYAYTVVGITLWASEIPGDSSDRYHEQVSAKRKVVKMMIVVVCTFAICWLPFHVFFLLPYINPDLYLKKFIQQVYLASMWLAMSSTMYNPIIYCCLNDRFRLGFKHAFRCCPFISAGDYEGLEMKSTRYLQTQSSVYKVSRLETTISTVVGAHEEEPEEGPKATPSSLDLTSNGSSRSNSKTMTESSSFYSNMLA
T6 sequence (P32300 whole entry): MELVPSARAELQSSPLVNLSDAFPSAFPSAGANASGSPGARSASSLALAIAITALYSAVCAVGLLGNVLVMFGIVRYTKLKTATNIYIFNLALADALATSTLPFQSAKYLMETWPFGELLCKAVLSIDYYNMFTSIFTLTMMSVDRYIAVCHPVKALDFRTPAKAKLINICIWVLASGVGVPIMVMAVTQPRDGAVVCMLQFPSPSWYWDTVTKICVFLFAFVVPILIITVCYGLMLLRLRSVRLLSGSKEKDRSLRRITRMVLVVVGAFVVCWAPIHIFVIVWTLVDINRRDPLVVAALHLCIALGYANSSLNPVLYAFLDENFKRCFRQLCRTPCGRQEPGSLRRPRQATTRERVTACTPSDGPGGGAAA

CCCC[C@@H]1NC(=O)[C@H](Cc2ccccc2)NC(=O)CNC(=O)[C@H](NC(=O)[C@@H](N)Cc2ccc(O)cc2)CSSC[C@H](C(=O)N[C@@H](Cc2c[nH]c3ccccc23)C(=O)NCc2cc(C(F)(F)F)cc(C(F)(F)F)c2)NC(=O)[C@@H]2CCCN2C1=O [TY038, [D-Cys^2, D-Cys^7]TY027] (HELM PEPTIDE1{Y.[dC].G.F.[Nle].P.[dC].W.[FC(F)(F)c1cc(CN[*:1])cc(C(F)(F)F)c1]}$PEPTIDE1,PEPTIDE1,2:R3-7:R3$$$V2.0; N-terminus assumed)
IC50 [1]: 0.501 nM
Ki [1]: 0.24 nM
Ki ([1]; read-out: Ki, hNK1): 0.25 nM
IC50 (rat NK1 (rNK1) receptor; Table 20): 20 nM
Ki(hNK1)/Ki(rNK1) (rat NK1 (rNK1) receptor; Table 20, species ratio): 28
Ki (rat NK1 (rNK1) receptor; [8]): 7.11 nM
Ki (rat NK1 (rNK1) receptor; read-out: Ki, rNK1): 7.1 nM
Emax [2, 9]: 87%
EC50 [2, 10]: 14 nM
Emax [2, 11]: 87%
Emax ([2]; net total bound/basal binding × 100, read-out: Emax, hDOR, [35S]GTP-γ-S binding): 87%
half-life at 50 μg/mL [3, 12]: > 6 h
EC50 ([4]; LogEC50, rMOR): 20 nM
Emax ([4]; read-out: Emax (%), rMOR): 12%
Emax ([4]; read-out: Emax, rMOR, [35S]GTP-γ-S binding): < 20%
EC50 ([4]; read-out: GTP binding rMOR EC50): 21.7 nM
Emax ([4]; read-out: GTP binding rMOR Emax): 11%
IC50 [5]: 1.58 nM
Ki [5]: 156 nM
Ki(μ)/Ki(δ) ([5]; Table 20, ratio rMOR Ki / hDOR Ki): 2.9
Ki ([5]; read-out: Ki, rMOR, [3H]DAMGO): 160 nM
Opioid agonist GPI (μ), % inh. (μ opioid receptors (GPI)): 3% inh. at 1 uM^d
GPI/LMMP opioid(mu) Antagonist (μ opioid receptors (GPI); Table 39): none
GPI/LMMP opioid(mu) agonist, % at 1 uM (μ opioid receptors (GPI); Table 39): 3% at
agonist effect in the functional assay using GPI (μ opioid receptors (GPI)): nearly no agonist effect
Kb ([6]; Substance P antagonist, GPI, Ke (nM), Table 22, in the presence of 1 μM naloxone): 12 ± 1.4 nM
GPI/LMMP SP Agonist (IC50; nM) ([6]; at 100 nM): none
IC50 (δ opioid receptors (MVD); Table 39, read-out: MVD opioid(delta) agonist (IC50; nM)): 18.9 nM
IC50 (δ opioid receptors (MVD); [13]): 19 nM
IC50 [7]: 126 nM
Ki [7]: 55.5 nM

CC(C)C[C@H](NC(=O)[C@@H]1CCCN1C(=O)[C@@H]1CSSC[C@@H](NC(=O)[C@@H](N)Cc2ccc(O)cc2)C(=O)NCC(=O)N[C@@H](Cc2ccccc2)C(=O)N1)C(=O)N[C@@H](Cc1c[nH]c2ccccc12)C(=O)NCc1cc(C(F)(F)F)cc(C(F)(F)F)c1 [TY039]
IC50 (rat NK1 (rNK1) receptor; Table 20): 1580 nM
EC50 [2, 14]: 0.9 nM
Emax [2, 9]: 37%
EC50 [2, 10]: 50.9 nM
Emax [2, 11]: 37%
half-life at 50 μg/mL [3, 12]: > 6 h
EC50 ([4]; Table 21, HN9.10 cell, read-out: EC50 (nM), rMOR): 118 nM
EC50 ([4]; Table 21, logarithm of EC50 (negative), HN9.10 cell, read-out: LogEC50, rMOR (converted)): 126 nM
Emax [4, 15]: 17%
EC50 [4, 16]: 118 nM
Emax [4, 17]: 20%
Emax [4, 18]: < 20%
IC50 [5]: 398 nM
Ki ([5]; read-out: Ki, rMOR, [3H]DAMGO): 200 nM
Opioid agonist GPI (μ), % inh. (μ opioid receptors (GPI)): 10% inh. at 1 uM^d
GPI/LMMP opioid(mu) Antagonist (μ opioid receptors (GPI); Table 39): none
GPI/LMMP opioid(mu) agonist, % at 1 uM (μ opioid receptors (GPI); Table 39): 10.1% at
agonist effect in the functional assay using GPI (μ opioid receptors (GPI)): nearly no agonist effect
IC50 (δ opioid receptors (MVD); [13]): 73 nM
IC50 [7]: 25.1 nM

CCCC[C@@H]1NC(=O)[C@H](Cc2ccccc2)NC(=O)CNC(=O)[C@H](NC(=O)[C@@H](N)Cc2ccc(O)cc2)C(C)(C)SSC(C)(C)[C@@H](C(=O)N[C@@H](Cc2c[nH]c3ccccc23)C(=O)NCc2cc(C(F)(F)F)cc(C(F)(F)F)c2)NC(=O)[C@@H]2CCCN2C1=O [TY047] (HELM PEPTIDE1{Y.[CC(C)(S[*:3])[C@@H](N[*:1])C(=O)[*:2]].G.F.[Nle].P.[Pen].W.[FC(F)(F)c1cc(CN[*:1])cc(C(F)(F)F)c1]}$PEPTIDE1,PEPTIDE1,2:R3-7:R3$$$V2.0; N-terminus assumed)
Ki (rat NK1 (rNK1) receptor; Affinity rNK1 (Ki; nM), Table 23): 163 nM
half-life at 50 μg/mL ([3]; FIG. 47, read-out: T1/2 in rat plasma): > 24 h
EC50 [4, 16]: 2910 nM
Ki [5]: 1970 nM
Ki [7]: 152 nM

CCCC[C@H](NC(=O)[C@H](Cc1ccccc1)NC(=O)CNC(=O)[C@@H](C)NC(=O)[C@@H](N)Cc1c(C)cc(O)cc1C)C(=O)N1CCC[C@H]1C(=O)N[C@@H](COC1O[C@H](CO)[C@@H](O)[C@H](O)[C@H]1O)C(=O)N[C@@H](Cc1c[nH]c2ccccc12)C(=O)NCc1cc(C(F)(F)F)cc(C(F)(F)F)c1 (stereo partly drawn) [TY056] (H-[Dmt][dA]GF[Nle]PS(X1)W-{NH(3,5-(CF3)2-benzyl)}; N-terminus assumed)
Ki [1]: 0.0017 nM
Ki (rat NK1 (rNK1) receptor; Affinity rNK1 (Ki; nM), Table 25): 10 nM
stability in the rat plasma ([3]; words): stable
EC50 ([4]; Table 25, read-out: GTP binding rMOR EC50): 44.9 nM
Emax ([4]; Table 25, read-out: GTP binding rMOR Emax (%)): 66%
Emax [4, 17]: 66%
Ki [5]: 1.9 nM
GPI/LMMP SP Agonist (IC50; nM) ([6]; at 30 nM): none
IC50 (δ opioid receptors (MVD)): 3.62 nM

CC(C)C[C@H](NC(=O)[C@@H]1CCCN1C(=O)[C@H]1CSSC[C@@H](NC(=O)[C@@H](N)Cc2ccc(O)cc2)C(=O)NCC(=O)N[C@@H](Cc2ccccc2)C(=O)N1)C(=O)N[C@@H](Cc1c[nH]c2ccccc12)C(=O)NCc1cc(C(F)(F)F)cc(C(F)(F)F)c1 [TY037, [D-Cys^2, D-Cys^5]TY027]
IC50 (rat NK1 (rNK1) receptor; Table 20): 126 nM
Ki (rat NK1 (rNK1) receptor; [8]): 45.5 nM
EC50 [2, 14]: 14 nM
EC50 [2, 10]: 98.2 nM
Emax [2, 11]: 26%
half-life at 50 μg/mL [3, 12]: 3.7 h
Emax [4, 15]: 12%
EC50 [4, 16]: 52.9 nM
Emax [4, 17]: 8%
Emax [4, 18]: < 20%
IC50 [5]: 126 nM
Ki ([5]; read-out: Ki, rMOR, [3H]DAMGO): 52 nM
IC50 (μ opioid receptors (GPI); Table 39, read-out: GPI/LMMP opioid(mu) agonist (IC50; nM)): 284 nM
IC50 (μ opioid receptors (GPI); electrically stimulated isolated tissue, read-out: GPI (μ), IC50): 280 nM
Substance P antagonist, GPI, Ke ([6]; in the presence of 1 μM naloxone): 4.7 nM
IC50 (δ opioid receptors (MVD); [13]): 8.3 nM
IC50 [7]: 15.8 nM
Ki ([7]; Table 39, read-out: Affinity hDOR (Ki; nM)): 7.8 nM
Ki ([7]; read-out: Ki (nM), hDOR, [3H]DPDPE, Table 20, HN9.10 cell membranes): 7.8 nM
